# From patent publication US10124065B2, “Lipids and lipid compositions for the delivery of active agents” (Novartis AG, priority 2013, dated 2018)
# “And” between values parts separate entries of the source, which are not always exact repeats. Identical values can stand only once.
# Key:
# [1] = system: respiratory syncytial virus F protein; assay: Immunization studies, anti-RSV-F titers; assay type: in vivo; details: anti-RSV-F titer, BALB/c, liposomes with 0.1 μg vA317 replicon (naked: 1 μg); for 2wp1 pool 1 / 2wp1 pool 2: 2 weeks after first dose; for 2wp2 pool 1 / 2wp2 pool 2: 2 weeks after second dose; for 4wp2 pool 1 / 4wp2 pool 2: 4 weeks after second dose
# Description: BALB/c were immunized with liposomes comprising DSPC, cholesterol, and various lipids of the invention (or, for comparison, the cationic lipid 1,2-dilinoleyloxy-N,N-dimethyl-3-aminopropane or ‘DLinDMA’). The liposomes encapsulated 0.1 μg of “vA317” self-replicating RNA replicon which encodes respiratory syncytial virus F protein (see WO2012/031043). […] Doses were given either on days 0 & 21 or days 0 & 42. Immune responses were assessed 2 weeks after each dose (2wp1, 2wp2), and in some cases also at 4 weeks after the second dose (4wp2).
# [2] = system: plasma Factor VII enzyme activity; assay: Mouse Factor VII dosing / Factor VII Activity Assay; assay type: in vivo; details: percent knock down of plasma Factor VII activity, CD-1 mice, 48 h; for KD FVII 0.03 mg/kg: single IV dose 0.03 mg/kg; for KD FVII 0.3 mg/kg: single IV dose 0.3 mg/kg
# Description: Female CD-1 mice were received from Harlan Labs and maintained on standard lab chow and water ad libitum. The animals weighed approximately 25 grams at time of dosing. Formulated Factor VII siRNA was administered as a single dose intravenously via the lateral tail vein. Approximately 48 hours after injection, the mice were euthanized by CO2 inhalation followed by exsanguination through the vena cava. […] Plasma collected from injected mice was assayed for Factor VII enzyme activity using the Biophen FVII kit from Hyphen Biomedical (catalog number 221304). An assay standard curve was prepared using pooled plasma aliquots from the vehicle control animals. All samples were diluted to fall within the linear range of the standard curve and Factor VII activity relative to control plasma was reported. Lipid nanoparticles comprising lipid compounds of formula (I) and the FVII siRNA duplex sequence listed above were tested in the Factor VII Activity Assay. The results of this assay are given in Table 4 below as a percent knock down of plasma Factor VII enzyme activity at a dose of 0.3 mg/kg and 0.03 mg/kg.
# [3] = LNP Chol/DSPC/PEG-DMG 45/44/9/2
SMILES,2wp1 pool 1 ([1]; course A = days 0 & 21),2wp1 pool 2 ([1]; course A = days 0 & 21),2wp2 pool 1 ([1]; course A = days 0 & 21),2wp2 pool 2 ([1]; course A = days 0 & 21),4wp2 pool 1 ([1]; course A = days 0 & 21),4wp2 pool 2 ([1]; course A = days 0 & 21),further results
"CCCCC/C=C\C/C=C\CCCCCCCCOc1cc(C(=O)OCCCN(C)C)cc(OCCCCCCCC/C=C\C/C=C\CCCCC)n1 [Example 25, 3-(dimethylamino)propyl 2,6-bis((9Z,12Z)-octadeca-9,12-dien-1-yloxy)isonicotinate]",1217,1883,1611,1156,2850,1767,–
"CCCCC/C=C\C/C=C\CCCCCCCCNC(=O)c1cc(COC(=O)CCCN(C)C)cc(C(=O)NCCCCCCCC/C=C\C/C=C\CCCCC)c1 [Example 66, 3,5-bis((9Z,12Z)-octadeca-9,12-dien-1-ylcarbamoyl)benzyl 4-(dimethylamino)butanoate]",75,75,75,75,75,75,–
"CCCCC/C=C\C/C=C\CCCCCCCCOc1cc(COC(=O)OCCCN(C)C)cc(OCCCCCCCC/C=C\C/C=C\CCCCC)c1 [Example 68, 3,5-bis((9Z,12Z)-octadeca-9,12-dien-1-yloxy)benzyl (3-(dimethylamino)propyl) carbonate]",1031,494,11315,7800,12963,17734,–
"CC/C=C\C/C=C\C/C=C\CCCCCCCC(=O)OCCCCOc1cc(CN(C)C)cc(OCCCCOC(=O)CCCCCCC/C=C\C/C=C\C/C=C\CC)c1 [Example 62, (9Z,9′Z,12Z,12′Z,15Z,15′Z)-((5-((dimethylamino)methyl)-1,3-phenylene)bis(oxy))bis(butane-4,1-diyl)bis(octadeca-9,12,15-trienoate)]",–,–,–,–,–,–,KD FVII 0.03 mg/kg ([2]; LNP Chol/DSPC/S010 45/44/9/2): 85.8%
"CCCCC/C=C\C/C=C\CCCCCCCCOc1cc(CCCOC(=O)CCN(C)C)cc(OCCCCCCCC/C=C\C/C=C\CCCCC)c1 [Example 81, 3-(3,5-bis((9Z,12Z)-octadeca-9,12-dien-1-yloxy)phenyl)propyl 3-(dimethylamino)propanoate]",1779,1553,24648,15304,41921,34684,–
"CCCCC/C=C\C/C=C\CCCCCCCC(=O)OCCCCOc1cc(CN(CC)CC)cc(OCCCCOC(=O)CCCCCCC/C=C\C/C=C\CCCCC)c1C [Example 55, (9Z,9′Z,12Z,12′Z)-((5-((diethylamino)methyl)-2-methyl-1,3-phenylene)bis(oxy))bis(butane-4,1-diyl)bis(octadeca-9,12-dienoate)]",–,–,–,–,–,–,"KD FVII 0.3 mg/kg [2, 3]: 98.0%"
"CCCCCCCC(=O)OC[C@H](CCOc1cc(CN(C)C)cc(OCC[C@@H](COC(=O)CCCCCCC)OC(=O)CCCCCCC)c1)OC(=O)CCCCCCC [Example 93, (S)-4-(3-((S)-3,4-bis(octanoyloxy)butoxy)-5-((dimethylamino)methyl)phenoxy)butane-1,2-diyldioctanoate]",–,–,–,–,–,–,KD FVII 0.03 mg/kg ([2]; LNP Chol/DSPC/S010 45/44/9/2): 89.71%
"CCCCCCCCCCCCC(=O)OCc1cc(COC(=O)CCCCCCCCCCCC)cc(CN(C)C)c1 [Example 34, (5-((dimethylamino)methyl)-1,3-phenylene)bis(methylene)ditridecanoate]",–,–,–,–,–,–,"KD FVII 0.3 mg/kg [2, 3]: 0%"
"CCCCC/C=C\C/C=C\CCCCCCCCOCC(CN(C)C)OCCCCCCCC/C=C\C/C=C\CCCCC (centres unmarked) [DLinDMA, 1,2-dilinoleyloxy-N,N-dimethyl-3-aminopropane, reference compound]",–,–,–,–,26504 and 50799,28008 and 35992,2wp1 pool 1 ([1]; course B = days 0 & 42): 13; 2wp1 pool 2 ([1]; course B = days 0 & 42): 4; 2wp2 pool 1 ([1]; course B = days 0 & 42): 18290; 2wp2 pool 2 ([1]; course B = days 0 & 42): 5538; 4wp2 pool 1 ([1]; course B = days 0 & 42): 13936; 4wp2 pool 2 ([1]; course B = days 0 & 42): 7020
"CCCCC/C=C\C/C=C\CCCCCCCCOc1cc(COC(=O)CCCN(C)C)cc(OCCCCCCCC/C=C\C/C=C\CCCCC)c1 [Example 13, 3,5-bis((9Z,12Z)-octadeca-9,12-dien-1-yloxy)benzyl 4-(dimethylamino)butanoate]",495,620,7157,12316,–,–,–
"CCCCCCCC/C=C\CCCCCCCCOc1cc(OCCCCCCCC/C=C\CCCCCCCC)cc(C2OCC(COC(=O)CN(C)C)O2)c1 (centres unmarked) [Example 12, (2-(3,5-bis((Z)-octadec-9-en-1-yloxy)phenyl)-1,3-dioxolan-4-yl)methyl 2-(dimethylamino)acetate]",–,–,–,–,–,–,2wp1 pool 1 ([1]; course B = days 0 & 42): 88; 2wp1 pool 2 ([1]; course B = days 0 & 42): 128; 2wp2 pool 1 ([1]; course B = days 0 & 42): 4550; 2wp2 pool 2 ([1]; course B = days 0 & 42): 4828; 4wp2 pool 1 ([1]; course B = days 0 & 42): 4787; 4wp2 pool 2 ([1]; course B = days 0 & 42): 3972
"CCCCC/C=C\C/C=C\CCCCCCCC(=O)OCc1cc(COC(=O)CCCCCCC/C=C\C/C=C\CCCCC)cc(COC(=O)CCN(C)C)c1 [Example 29, (9Z,9′Z,12Z,12′Z)-(5-(((3-(dimethylamino)propanoyl)oxy)methyl)-1,3-phenylene)bis(methylene)bis(octadeca-9,12-dienoate)]",2101,3584,12529,18669,23930,37278,–
"CCCCCCCC/C=C\CCCCCCCCOc1cc(OCCCCCCCC/C=C\CCCCCCCC)cc(C2OCC(CN3CCCC3)O2)c1 (centres unmarked) [Example 9, 1-((2-(3,5-bis((Z)-octadec-9-en-1-yloxy)phenyl)-1,3-dioxolan-4-yl)methyl)pyrrolidine]",1832,1352,29707,18788,–,–,–
"CCCCC/C=C\C/C=C\CCCCCCCC(=O)OCCOc1cc(CN(C)C)cc(OCCOC(=O)CCCCCCC/C=C\C/C=C\CCCCC)c1 [Example 40, (9Z,9′Z, 12Z, 12′Z)-((5-((dimethylamino)methyl)-1,3-phenylene)bis(oxy))bis(ethane-2,1-diyl)bis(octadeca-9,12-dienoate)]",–,–,–,–,–,–,"KD FVII 0.03 mg/kg ([2]; LNP Chol/DSPC/S010 45/44/9/2): 8.2%; KD FVII 0.3 mg/kg [2, 3]: 89.8%"
"CCCCCCCC/C=C\CCCCCCCC(=O)OCCCCOc1cc(CN(C)C)cc(OCCCCOC(=O)CCCCCCC/C=C\CCCCCCCC)c1 [Example 60, (Z)-((5-((dimethylamino)methyl)-1,3-phenylene)bis(oxy))bis(butane-4,1-diyl)dioleate]",–,–,–,–,–,–,KD FVII 0.03 mg/kg ([2]; LNP Chol/DSPC/S010 45/44/9/2): 49.75%
"CCCCCCCCCCCCCC(=O)OCCCCOc1cc(CN(C)C)cc(OCCCCOC(=O)CCCCCCCCCCCCC)c1 [Example 61, ((5-((dimethylamino)methyl)-1,3-phenylene)bis(oxy))bis(butane-4,1-diyl)ditetradecanoate]",–,–,–,–,–,–,KD FVII 0.03 mg/kg ([2]; LNP Chol/DSPC/S010 45/44/9/2): 0%
"CCCCC/C=C\C/C=C\CCCCCCCC(=O)OCCCCOc1cc(CN2CCCC2)cc(OCCCCOC(=O)CCCCCCC/C=C\C/C=C\CCCCC)c1 [Ex. 112, (9Z,9′Z,12Z,12′Z)-((5-(pyrrolidin-1-ylmethyl)-1,3-phenylene)bis(oxy))bis(butane-4,1-diyl)bis(octadeca-9,12-dienoate)]",–,–,–,–,–,–,"KD FVII 0.03 mg/kg [2, 3]: 86%"
"CCCCC/C=C\C/C=C\CCCCCCCC(=O)OCc1cc(COC(=O)CCCCCCC/C=C\C/C=C\CCCCC)cc(COC(=O)OCCN(C)C)c1 [Example 70, (9Z,9′Z,12Z,12′Z)-(5-((((2-(dimethylamino)ethoxy)carbonyl)oxy)methyl)-1,3-phenylene)bis(methylene)bis(octadeca-9,12-dienoate)]",1416,3110,31550,20124,18779,18358,–
"CCCCCCCCCC(=O)OCCCCCCOc1cc(CN(C)C)cc(OCCCCCCOC(=O)CCCCCCCCC)c1 [Example 47, ((5-((dimethylamino)methyl)-1,3-phenylene)bis(oxy))bis(hexane-6,1-diyl)bis(decanoate)]",–,–,–,–,–,–,"KD FVII 0.3 mg/kg [2, 3]: 99%"
"CCCCC/C=C\C/C=C\CCCCCCCC(=O)OCc1cc(COC(=O)CCCCCCC/C=C\C/C=C\CCCCC)cc(COC(=O)OCCCN(CC)CC)c1 [Example 69, (9Z,9′Z,12Z,12′Z)-(5-((((3-(diethylamino)propoxy)carbonyl)oxy)methyl)-1,3-phenylene)bis(methylene)bis(octadeca-9,12-dienoate)]",2853,4481,23851,20793,19075,21504,–
